From patent US8796415B2, “Inhibitors of guanine exchange factors and their use as anticancer drugs” (Centre National de la Recherche Scientifique, priority 2009, dated 2014)
Ends that are not written are not given here.

Columns and labels:
[1] = test system: Tgat-expressing NIH3T3 cells; assay: Focus formation assay of Tgat-expressing NIH3T3 cells; format: cell-based; settings: GST-tagged peptide stably co-expressed; after 3 weeks of culture
Method: FIG. 9A represents the focus formation assay of NIH3T3 cells, stably expressing GFP or GFP-Tgat, together with GST or GST-TRIPE32G.
FIG. 9B represents the quantification of three independent focus formation assays. The number of foci formed by Tgat/GST expressing cells was set to 100%.
NIH3T3 cells were maintained as described previously (Sirvent et al., 2007). Transient transfection experiments were performed using the Jet PEI reagent, according to the manufacturer's protocol (QBiogene Inc.). NIH3T3 cell lines stably expressing GFP-Tgat, GFP-TgatL190E, or GFP-Trio, with or without the GST-TRIP peptides, were generated as follows: the indicated retroviral constructs were transfected into BOSC packaging cells, using the Lipofectamine reagent (Invitrogen Inc.). Forty-eight hours after transfection, virus containing supernatants were collected and used to infect NIH3T3 cells. Infected cells were selected with 6 μg/mL puromycin and/or 1 mg/mL G418 and stable transfectants were pooled after selection. Tgat or TRIP mRNA levels in the different cell lines were monitored by RTPCR, and protein expression levels by Western blot analysis using a polyclonal anti-GFP antibody (Toney Pines Laboratories). […] After staining with Crystal Violet (1%), plates were photographed and foci were scored using the Metamorph software. […]

[2] = test system: Tgat-expressing NIH3T3 cells; assay: Cell proliferation or apoptosis (data not shown); format: cell-based
Trio DH2-PH2 = target: T1, Trio DH2-PH2 (Homo sapiens, UniProt O75962); assay: Yeast two-hybrid screening for binding to Trio DH2-PH2; settings: 3-AT 80-120 mM
T1 construct: made in house
Text: The inventors next reasoned that peptides that would bind stronger to the GEF domain may also be better at inhibiting its activity. The inventors thus generated a library of peptide aptamers derived from TRIPα by random mutagenesis, which the inventors screened for GEF binding in a yeast two-hybrid assay. The inventors chose a system in which the threshold of interaction detection can be modulated by the concentration of the 3-aminotriazole (3-AT) drug (Sardet et al., 1995). Since Tgat is toxic in yeast, the inventors used Trio DH2-PH2 to screen this TRIP-like peptide library. […] These clones were then produced as GST fusions and analyzed for their inhibition of Trio DH2-PH2, using the [3H]-GDP dissociation assay.
An aptamer library derived from TRIPα was created by PCR-based random mutagenesis of TRIPα inserted into the yeast two-hybrid vector pPC86. Sequencing of a statistically representative number of clones yielded a mutation rate of ˜3 mutations/clone. 6×10^5 independent clones were screened for interactors, using Trio DH2-PH2 (in the pPC97 vector) as a bait, in the MAV 103 yeast strain, on high concentrations of 3-AT (3-amino-triazol, Sigma) (80-120 mM). Selected peptides were then produced as GST-fusions and analyzed for their inhibition of Trio DH2-PH2 using the [3H]-GDP dissociation assay.

PC12 cells = settings: Schmidt et al., 2002; cited from earlier work

For “GST-TRIPE32G (AREGADGAICGYNLATLVMLGPSERVFCPLCGPCSSDIYELM; cysteine pairing not given here; also: GST fusion)”, the “foci in Tgat expressing cells” value [1] was “severely reduced” and the “non-specific effect on cell proliferation or apoptosis” value [2] was “not due to a non-specific effect of TRIPE32G on cell proliferation or apoptosis”.

For “AREGADGAICGYNLATLVMLGPSERVFCPLCEPCSSDIYELM [TRIPα]”, the “interaction with Trio DH2-PH2 in yeast two-hybrid assay” value (Trio DH2-PH2) is listed as “no interaction” and the “neurite retraction phenotype induced by Trio DH2-PH2” value (PC12 cells) is listed as “reverting the neurite retraction phenotype”.
